# Assay results as given in ChEMBL document CHEMBL1201862, “PubChem BioAssay data set” (2004).
# Active and inactive are the calls of the source.
# Columns and labels:
# [1] = non-specific 3'UTR reporter inhibition in Clone20-Shn3RL – cell-based, Renilla luciferase, cherry-picked, counter-screen for Shn3 inhibitor project, dose response (AID 624133); format: functional
# [2] = loss of viability in HepG2 cells – cell-based, CellTiter-Glo, cherry-picked, cytotoxicity control for Shn3 inhibitor project, dose response (AID 624134); format: functional
# [3] = reduction of Shn3 3'UTR-driven luciferase in osteoblasts – cell-based, Clone20 osteoblasts, firefly luciferase, cherry-picked, dose response (AID 624132); format: functional;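 also: firefly luciferase luminescence from reporter carrying the Shn3 3'UTR in osteoblasts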
# cells = format: functional
# Cytochrome P450 1A2 = target: T1, Cytochrome P450 1A2 (Homo sapiens, UniProt P05177);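 also: PubChem cytochrome P450 panel assay, CYP1A2 panel member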
# T1 sequence (P05177 whole entry): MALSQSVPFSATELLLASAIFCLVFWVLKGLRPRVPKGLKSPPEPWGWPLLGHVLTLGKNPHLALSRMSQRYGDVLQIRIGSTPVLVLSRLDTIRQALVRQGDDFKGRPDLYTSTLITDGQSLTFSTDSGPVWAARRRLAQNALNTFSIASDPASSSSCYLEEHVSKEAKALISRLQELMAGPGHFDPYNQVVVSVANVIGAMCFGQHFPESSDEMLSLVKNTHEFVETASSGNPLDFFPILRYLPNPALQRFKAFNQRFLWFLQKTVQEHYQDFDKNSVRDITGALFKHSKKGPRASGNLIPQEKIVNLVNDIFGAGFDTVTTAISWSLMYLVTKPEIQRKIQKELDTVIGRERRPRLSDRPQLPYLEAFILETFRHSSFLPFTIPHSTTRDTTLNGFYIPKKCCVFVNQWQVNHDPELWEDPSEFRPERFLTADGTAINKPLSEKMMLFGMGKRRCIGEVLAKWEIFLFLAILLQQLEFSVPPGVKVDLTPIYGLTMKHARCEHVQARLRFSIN
# Cytochrome P450 2C9 = Cytochrome P450 2C9 (Homo sapiens, UniProt P11712)
# Chain of Cytochrome P450 2C9 (P11712 whole entry): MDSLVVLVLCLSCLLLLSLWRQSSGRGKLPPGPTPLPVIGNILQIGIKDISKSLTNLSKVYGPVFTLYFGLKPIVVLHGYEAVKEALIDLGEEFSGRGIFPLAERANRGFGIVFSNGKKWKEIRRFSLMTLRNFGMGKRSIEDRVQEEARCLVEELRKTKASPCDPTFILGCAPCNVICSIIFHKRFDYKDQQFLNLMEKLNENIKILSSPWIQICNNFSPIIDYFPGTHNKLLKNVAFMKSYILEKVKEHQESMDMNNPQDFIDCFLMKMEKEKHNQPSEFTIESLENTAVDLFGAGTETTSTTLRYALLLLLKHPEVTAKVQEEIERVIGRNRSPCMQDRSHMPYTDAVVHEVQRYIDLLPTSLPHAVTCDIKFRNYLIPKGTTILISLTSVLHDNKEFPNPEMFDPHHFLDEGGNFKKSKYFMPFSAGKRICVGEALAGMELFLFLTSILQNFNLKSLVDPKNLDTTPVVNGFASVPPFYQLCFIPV
# Cytochrome P450 2D6 = Cytochrome P450 2D6 (Homo sapiens, UniProt P10635);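 also: CYP2D6 member of a cytochrome P450 panel assay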
# Chain of Cytochrome P450 2D6 (P10635 whole entry): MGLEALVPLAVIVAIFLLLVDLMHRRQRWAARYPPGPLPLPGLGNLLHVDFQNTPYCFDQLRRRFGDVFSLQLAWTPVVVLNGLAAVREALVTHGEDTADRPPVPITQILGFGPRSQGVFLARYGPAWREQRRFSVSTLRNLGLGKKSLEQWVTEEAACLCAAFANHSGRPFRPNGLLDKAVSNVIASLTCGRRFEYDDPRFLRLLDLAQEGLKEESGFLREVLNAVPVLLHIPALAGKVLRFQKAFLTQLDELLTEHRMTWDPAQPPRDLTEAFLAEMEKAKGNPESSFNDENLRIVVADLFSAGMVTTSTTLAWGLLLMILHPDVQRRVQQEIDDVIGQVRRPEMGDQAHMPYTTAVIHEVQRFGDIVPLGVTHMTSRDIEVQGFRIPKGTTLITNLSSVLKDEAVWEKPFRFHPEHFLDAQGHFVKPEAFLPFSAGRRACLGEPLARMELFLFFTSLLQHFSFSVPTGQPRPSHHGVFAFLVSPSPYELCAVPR
# [4] = target: Luciferin 4-monooxygenase (Photinus pyralis, UniProt P08659); test: inhibition of purified Photinus pyralis luciferase – biochemical, luminescence, dose response (AID 1891)
# Chain of Luciferin 4-monooxygenase (P08659 whole entry): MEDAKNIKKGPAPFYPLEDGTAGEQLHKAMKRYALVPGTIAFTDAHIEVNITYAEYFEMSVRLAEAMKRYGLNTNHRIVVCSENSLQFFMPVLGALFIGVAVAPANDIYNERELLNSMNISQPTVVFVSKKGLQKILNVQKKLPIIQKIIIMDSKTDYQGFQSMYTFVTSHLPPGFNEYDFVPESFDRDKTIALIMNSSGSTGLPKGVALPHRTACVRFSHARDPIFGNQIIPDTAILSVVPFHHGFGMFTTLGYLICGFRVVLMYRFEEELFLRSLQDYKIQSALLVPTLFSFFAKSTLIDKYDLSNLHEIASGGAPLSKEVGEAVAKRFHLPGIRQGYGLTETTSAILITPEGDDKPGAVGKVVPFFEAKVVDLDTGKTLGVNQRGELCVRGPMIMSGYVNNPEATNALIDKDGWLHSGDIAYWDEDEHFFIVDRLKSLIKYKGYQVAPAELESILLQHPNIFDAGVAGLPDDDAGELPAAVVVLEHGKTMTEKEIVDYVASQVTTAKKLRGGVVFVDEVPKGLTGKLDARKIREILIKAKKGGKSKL
# [5] = Luminescence Cell-Based Dose Confirmation HTS to Identify Inhibitors of Platelet Dense Granule Release. [Related pubchem assays: 1663 (Primary HTS), 1678 (Summary of Project)]; format: functional
# [6] = NIH3T3 cell viability loss – ATP luminescence, mouse fibroblasts, counter-screen, dose response (AID 2010); format: functional, cell-based;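 also: cells exposed to compound for about 90 hours before reading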
# [7] = target: T2, High affinity choline transporter 1 (Homo sapiens, UniProt Q9GZV3); test: human choline transporter blockers, potency – cell-based, 5-point CRC, membrane potential dye, dose response (AID 504840); format: functional
# T2 sequence (Q9GZV3 whole entry): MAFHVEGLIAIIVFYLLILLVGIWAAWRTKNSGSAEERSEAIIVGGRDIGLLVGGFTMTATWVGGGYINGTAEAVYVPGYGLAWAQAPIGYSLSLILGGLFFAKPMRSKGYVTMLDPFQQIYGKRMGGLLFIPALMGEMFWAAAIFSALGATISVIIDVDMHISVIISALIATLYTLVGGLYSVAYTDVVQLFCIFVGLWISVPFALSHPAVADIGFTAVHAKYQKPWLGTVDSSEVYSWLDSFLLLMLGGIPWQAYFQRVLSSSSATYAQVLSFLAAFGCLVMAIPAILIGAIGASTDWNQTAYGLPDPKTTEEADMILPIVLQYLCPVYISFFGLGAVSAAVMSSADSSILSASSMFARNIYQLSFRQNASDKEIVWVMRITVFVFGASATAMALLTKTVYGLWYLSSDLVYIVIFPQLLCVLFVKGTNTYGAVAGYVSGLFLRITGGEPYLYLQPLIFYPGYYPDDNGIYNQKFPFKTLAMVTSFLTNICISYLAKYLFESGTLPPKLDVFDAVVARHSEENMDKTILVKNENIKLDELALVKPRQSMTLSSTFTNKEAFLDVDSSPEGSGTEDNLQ
# [8] = Trypanosoma cruzi growth suppression in host cells – NIH3T3 host cells, beta-gal luminescence, confirmation (AID 2044); format: functional, cell-based;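 also: intracellular parasites grown in NIH/3T3 mouse fibroblasts as host cells; luminescent beta-galactosidase reporter signal from transgenic T. cruzi replicating inside host cells; inhibitors lower the luminescence signal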
# Cytochrome P450 3A4 = Cytochrome P450 3A4 (Homo sapiens, UniProt P08684);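 also: CYP3A4 tested as one member of a cytochrome P450 panel screen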
# Chain of Cytochrome P450 3A4 (P08684 whole entry): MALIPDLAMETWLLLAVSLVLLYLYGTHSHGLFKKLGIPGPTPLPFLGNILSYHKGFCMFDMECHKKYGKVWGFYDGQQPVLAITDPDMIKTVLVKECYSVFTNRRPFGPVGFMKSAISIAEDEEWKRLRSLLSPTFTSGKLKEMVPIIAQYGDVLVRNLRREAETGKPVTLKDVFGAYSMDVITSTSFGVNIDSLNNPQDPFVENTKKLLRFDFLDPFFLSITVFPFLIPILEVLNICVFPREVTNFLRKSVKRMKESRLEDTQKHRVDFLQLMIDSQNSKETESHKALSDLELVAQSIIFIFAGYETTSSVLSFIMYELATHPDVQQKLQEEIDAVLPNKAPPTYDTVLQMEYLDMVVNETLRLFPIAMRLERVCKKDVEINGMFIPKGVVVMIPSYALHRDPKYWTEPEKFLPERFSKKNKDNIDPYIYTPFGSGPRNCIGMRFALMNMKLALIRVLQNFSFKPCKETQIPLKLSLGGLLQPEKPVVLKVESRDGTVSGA
# Protein RecA = target: T3, Protein RecA (Mycobacterium tuberculosis, UniProt P9WHJ3); test: Fluorescence Cell-Free Homogeneous Dose Retest to Identify Inhibitors of RecA-Intein Splicing Activity. [Related pubchem assays (depositor defined):AID2097, AID2223, AID489010, AID492950]; format: functional
# T3 sequence (P9WHJ3 whole entry): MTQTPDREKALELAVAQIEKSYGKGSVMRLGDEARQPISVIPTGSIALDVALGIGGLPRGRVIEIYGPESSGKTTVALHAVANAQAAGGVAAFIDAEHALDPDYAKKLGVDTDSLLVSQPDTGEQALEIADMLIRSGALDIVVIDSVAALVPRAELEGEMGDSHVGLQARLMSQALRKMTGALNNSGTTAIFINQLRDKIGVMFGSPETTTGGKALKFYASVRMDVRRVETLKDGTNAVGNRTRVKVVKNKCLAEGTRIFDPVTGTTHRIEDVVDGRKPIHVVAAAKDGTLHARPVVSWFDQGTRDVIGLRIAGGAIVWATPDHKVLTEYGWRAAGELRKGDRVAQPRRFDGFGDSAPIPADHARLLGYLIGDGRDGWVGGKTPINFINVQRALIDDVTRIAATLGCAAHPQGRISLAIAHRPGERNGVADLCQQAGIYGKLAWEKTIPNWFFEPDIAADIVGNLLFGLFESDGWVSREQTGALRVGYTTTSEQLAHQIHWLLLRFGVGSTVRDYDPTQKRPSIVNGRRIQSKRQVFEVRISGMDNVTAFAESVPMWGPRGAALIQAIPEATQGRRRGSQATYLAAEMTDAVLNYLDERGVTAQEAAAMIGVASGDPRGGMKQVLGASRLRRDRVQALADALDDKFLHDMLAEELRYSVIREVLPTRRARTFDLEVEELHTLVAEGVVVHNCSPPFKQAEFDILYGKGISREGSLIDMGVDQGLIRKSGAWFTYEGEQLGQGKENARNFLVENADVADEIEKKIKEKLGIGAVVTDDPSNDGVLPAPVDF
# [9] = target: T4, Replicative DNA helicase DnaB (Mycobacterium tuberculosis, UniProt P9WMR3); test: DnaB intein splicing inhibitors, dose response, biochemical, cell-free fluorescence (AID 449749); format: functional
# T4 sequence (P9WMR3 whole entry): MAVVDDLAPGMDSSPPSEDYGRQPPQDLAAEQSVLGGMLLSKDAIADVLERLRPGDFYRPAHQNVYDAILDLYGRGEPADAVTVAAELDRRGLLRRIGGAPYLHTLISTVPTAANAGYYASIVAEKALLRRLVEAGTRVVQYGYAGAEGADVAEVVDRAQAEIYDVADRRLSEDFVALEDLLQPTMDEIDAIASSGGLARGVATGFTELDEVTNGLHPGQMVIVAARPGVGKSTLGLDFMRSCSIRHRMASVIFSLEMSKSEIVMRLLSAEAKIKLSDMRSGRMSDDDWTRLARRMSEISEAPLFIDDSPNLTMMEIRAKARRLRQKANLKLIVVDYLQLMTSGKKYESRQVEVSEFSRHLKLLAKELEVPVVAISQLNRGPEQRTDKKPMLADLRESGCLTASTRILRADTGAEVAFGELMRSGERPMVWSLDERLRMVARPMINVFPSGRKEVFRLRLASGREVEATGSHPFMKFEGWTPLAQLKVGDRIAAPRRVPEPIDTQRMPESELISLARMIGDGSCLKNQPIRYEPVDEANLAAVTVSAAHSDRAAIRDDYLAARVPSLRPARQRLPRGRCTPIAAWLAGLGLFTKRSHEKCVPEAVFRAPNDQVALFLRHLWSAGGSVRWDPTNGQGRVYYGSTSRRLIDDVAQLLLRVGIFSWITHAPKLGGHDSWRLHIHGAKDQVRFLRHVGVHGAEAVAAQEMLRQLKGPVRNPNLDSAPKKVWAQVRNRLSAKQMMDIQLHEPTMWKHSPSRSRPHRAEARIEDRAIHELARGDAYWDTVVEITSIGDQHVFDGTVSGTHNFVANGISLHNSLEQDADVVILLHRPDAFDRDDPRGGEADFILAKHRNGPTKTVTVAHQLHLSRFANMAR
# Genome polyprotein = Genome polyprotein (dengue virus type 2, UniProt P29990); test: flavivirus cap methylation enzyme inhibition – biochemical, confirmation dose response, primary screen (AID 588689); format: functional
# Chain of Genome polyprotein (P29990 2492-3391 limits assumed): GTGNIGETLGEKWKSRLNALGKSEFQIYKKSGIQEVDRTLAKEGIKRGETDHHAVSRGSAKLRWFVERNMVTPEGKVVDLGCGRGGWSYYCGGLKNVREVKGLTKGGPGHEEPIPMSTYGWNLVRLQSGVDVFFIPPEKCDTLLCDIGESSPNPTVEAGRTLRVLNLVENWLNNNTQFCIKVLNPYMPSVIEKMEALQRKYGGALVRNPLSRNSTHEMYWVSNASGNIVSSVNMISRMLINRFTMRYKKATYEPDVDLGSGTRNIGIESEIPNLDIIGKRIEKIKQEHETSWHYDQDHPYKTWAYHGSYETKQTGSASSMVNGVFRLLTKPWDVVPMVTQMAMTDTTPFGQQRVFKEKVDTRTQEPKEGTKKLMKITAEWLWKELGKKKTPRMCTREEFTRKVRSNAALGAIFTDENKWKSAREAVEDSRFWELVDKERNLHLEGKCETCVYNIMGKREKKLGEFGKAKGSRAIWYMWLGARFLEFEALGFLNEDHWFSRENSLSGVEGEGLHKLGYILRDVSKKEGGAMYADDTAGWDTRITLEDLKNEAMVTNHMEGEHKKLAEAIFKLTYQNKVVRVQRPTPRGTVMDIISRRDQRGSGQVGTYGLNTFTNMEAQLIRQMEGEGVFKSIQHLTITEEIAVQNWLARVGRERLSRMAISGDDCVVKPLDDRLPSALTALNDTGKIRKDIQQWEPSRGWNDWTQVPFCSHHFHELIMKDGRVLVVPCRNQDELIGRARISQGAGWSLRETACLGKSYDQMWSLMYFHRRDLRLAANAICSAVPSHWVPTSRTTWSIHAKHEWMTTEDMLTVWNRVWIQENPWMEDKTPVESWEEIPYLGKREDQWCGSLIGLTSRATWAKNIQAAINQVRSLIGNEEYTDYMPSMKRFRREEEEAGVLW
# Cytochrome P450 2C19 = Cytochrome P450 2C19 (Homo sapiens, UniProt P33261); test: Cytochrome panel assay with activity outcomes. Panel member name: p450-cyp2c19 Compounds with AC50 equal or less than 10 uM are considered active; format: functional; conditions: read-out: AC50
# Chain of Cytochrome P450 2C19 (P33261 whole entry): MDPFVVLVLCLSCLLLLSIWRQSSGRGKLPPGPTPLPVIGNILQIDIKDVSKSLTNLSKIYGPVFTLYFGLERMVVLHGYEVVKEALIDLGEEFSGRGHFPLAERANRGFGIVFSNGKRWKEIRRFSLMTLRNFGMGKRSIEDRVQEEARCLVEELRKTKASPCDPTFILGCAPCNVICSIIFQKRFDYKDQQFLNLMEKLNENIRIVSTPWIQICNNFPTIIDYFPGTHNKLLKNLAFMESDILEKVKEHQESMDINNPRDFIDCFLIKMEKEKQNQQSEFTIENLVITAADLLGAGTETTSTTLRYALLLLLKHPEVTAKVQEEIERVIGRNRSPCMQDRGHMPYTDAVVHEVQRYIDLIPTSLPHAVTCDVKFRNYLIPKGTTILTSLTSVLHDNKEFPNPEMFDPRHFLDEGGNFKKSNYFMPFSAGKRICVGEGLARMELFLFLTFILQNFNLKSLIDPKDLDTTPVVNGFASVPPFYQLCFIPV
compound,measurement,setting,value
CC(C)n1c(/C=C/[C@H](O)C[C@H](O)CC(=O)O)c(-c2ccc(F)cc2)c2ccccc21,AC50,[1],5.95 µM (active)
same,AC50,[2],> 70 µM (inactive)
same,AC50,[3],1.42 µM (active)
CCC(=O)c1ccc(OCc2ccc(C(=O)OC)cc2)cc1,IC50,cells,38.8 µM (active)
Nc1nonc1C(=O)NCCNCc1cc(Br)ccc1OCc1ccc(F)cc1,AC50,[1],8.32 µM (active)
same,AC50,[2],38.6 µM (active)
same,AC50,[3],3.74 µM (active)
CCCCCC1=C2CNC(C)(C(=O)OC)C=C2C(C)C1=O (configuration not stated),AC50,Cytochrome P450 1A2,25.1 µM (inconclusive)
same,AC50,Cytochrome P450 2C9,31.6 µM (inconclusive)
same,AC50,Cytochrome P450 2D6,25.1 µM (inconclusive)
O=C(C/C=N\OCc1ccc([N+](=O)[O-])cc1)Nc1ccc(F)cc1F,IC50,cells,33 µM (active)
Cc1cc(C)n2nc(N)c(N=Nc3ccccc3)c2n1,IC50,cells,5.78 µM (active)
same,EC50,[4],> 112 µM (not active)
same,EC50,[5],> 112 µM (not active)
O=C(Nc1ccc(S(=O)(=O)N2CCOCC2)cc1)c1ccc([N+](=O)[O-])cc1Cl,EC50,[6],> 30 µM (not active)
same,IC50,[7],15.1 µM (active)
same,EC50,[8],0.867 µM (active)
N#Cc1c(NC(=O)C(F)(F)F)sc2c3c(=O)c4ccccc4c(=O)c=3oc3ccccc3c12,AC50,Cytochrome P450 3A4,3.98 µM (inconclusive)
same,AC50,Cytochrome P450 2D6,0.794 µM (inconclusive)
O=C1NC(=O)C(=Cc2cc3c(cc2[N+](=O)[O-])OCO3)C(=O)N1,EC50,Protein RecA,> 380 µM (inconclusive)
same,AC50,[9],> 380 µM (inactive)
same,IC50,Genome polyprotein,21.4 µM (active)
O=C(OC[C@@H](O)CO)c1ccccc1Nc1ccnc2cc(Cl)ccc12,AC50,Cytochrome P450 2C19,3.98 µM (inconclusive)
same,AC50,Cytochrome P450 2C9,15.8 µM (inconclusive)
same,AC50,Cytochrome P450 2D6,12.6 µM (inconclusive)
Cc1c(C(=O)Nc2ccc(S(=O)(=O)NCC3CCCO3)cc2)cccc1[N+](=O)[O-] (configuration not stated),IC50,[7],14.5 µM (active)
CCCCCn1c(=O)c(C(=O)OCC)c(Cl)c2ccccc21,IC50,[7],19.1 µM (active)
